In patent publication US5462926A (Biomeasure, Inc., priority 1993, dated 1995):
Like-named read-outs stand apart in the source and are kept apart here. Where a SMILES comes first, the peptide text is derived from it. Bridges are numbered along the chain shown (N, C = ends). Where no end group is shown, it is not given here. [ ]: non-standard residue; d: D form. 2Nal = N[C@@H](Cc1ccc2ccccc2c1)C(=O)O; Lys(Et2) = CCN(CC)CCCC[C@H](N)C(=O)O

What was measured:
[1] = biological target: T1, NMB receptors on C-6 cells (Rattus norvegicus, UniProt P24053); assay: Binding of 125I-[D-Tyr0]NMB to C-6 glioblastoma cells; conditions: Ki by Cheng method, read-out: Ki 125I-NMB Binding, NMB Receptor, C-6 Cells
T1 construct: endogenous in cells; host or cells: rat glioblastoma C-6 cells
T1 sequence (P24053 1-390): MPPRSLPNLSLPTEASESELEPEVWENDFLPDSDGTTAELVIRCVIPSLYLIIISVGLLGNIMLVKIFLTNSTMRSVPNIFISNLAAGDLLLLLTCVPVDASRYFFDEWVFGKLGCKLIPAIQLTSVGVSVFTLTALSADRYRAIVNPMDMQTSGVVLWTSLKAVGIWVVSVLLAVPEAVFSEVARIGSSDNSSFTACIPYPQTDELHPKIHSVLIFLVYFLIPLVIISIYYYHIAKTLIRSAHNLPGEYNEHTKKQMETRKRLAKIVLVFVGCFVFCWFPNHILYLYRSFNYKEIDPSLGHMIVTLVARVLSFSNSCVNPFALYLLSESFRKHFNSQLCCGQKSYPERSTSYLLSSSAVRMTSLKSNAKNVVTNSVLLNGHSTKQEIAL
Method: Binding of ^125 I-[D-Tyr^0 ]NMB to C-6 glioblastoma and NMB-R transfected cells
Binding studies using rat glioblastoma C-6 or NMB-R transfected cells were performed as described previously [Benya, R. V. et al. Mol. Pharmacol. 42:1058 (1992); and Wang, L-H. et al. Biochem. J. 286:641 (1992)] by suspending disaggregated cells in binding buffer, which was composed of standing buffer ([…], 7.7 mM KCl, 1.0 mM EGTA, 0.02% soybean trypsin inhibitor) additionally containing 50 mM HEPES, 1 mM MgCl2, 1.5 mM CaCl2, 2.2 mM KH2 PO4, 0,015% glutamine, and 0.2% BSA (w/v) (pH 7.4). Incubations contained 75 pM ^125 I-[D-Tyr^0 ]NMB and 15×10^6 C-6 cells/ml or 2×10^6 NMB-R transfected cells/ml, for 60 min at 22° C. Nonsaturable binding of ^125 I-[D-Tyr^0 ]NMB was the amount of radioactivity associated with C-6 cells or NMB-R transfected cells when the incubation mixture contained […] NMB. Nonsaturable binding was<15% of total binding in all experiments; all values are reported herein as saturable binding (i.e., total minus nonsaturable binding).

[2] = biological target: T2, GRP receptors on rat pancreatic acini (Rattus norvegicus, UniProt P52500); assay: Binding of 125I-[Tyr4]bombesin to pancreatic acini; conditions: read-out: Ki 125I-[Tyr4]Bn Binding, GRP Receptor, Rat Pancreatic Acini; Ki by Cheng method
T2 construct: from tissue; host or cells: dispersed pancreatic acini
T2 sequence (P52500 whole entry): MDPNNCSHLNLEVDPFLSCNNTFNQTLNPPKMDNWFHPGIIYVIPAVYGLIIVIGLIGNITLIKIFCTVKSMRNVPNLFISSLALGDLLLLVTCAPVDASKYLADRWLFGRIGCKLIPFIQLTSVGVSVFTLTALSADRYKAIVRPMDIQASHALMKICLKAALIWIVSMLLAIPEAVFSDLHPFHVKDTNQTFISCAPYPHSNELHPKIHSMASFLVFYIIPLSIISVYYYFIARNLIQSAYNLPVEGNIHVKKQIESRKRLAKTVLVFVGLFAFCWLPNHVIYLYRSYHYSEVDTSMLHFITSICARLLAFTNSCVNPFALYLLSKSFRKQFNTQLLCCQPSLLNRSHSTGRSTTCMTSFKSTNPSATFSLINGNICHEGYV
Source text: Nonsaturable binding was<10% of total binding in all experiments.

GRP receptor [3] = biological target: T3, GRP receptor (Rattus norvegicus, UniProt P52500); assay: Amylase release from rat pancreatic acini (alone or Bn-stimulated); format: cell-based; design: from tissue; host or cells: dispersed pancreatic acini
T3 sequence (P52500 whole entry): as above
Method: pancreatic acini or [^3 H]myo[2H]inositolloaded NMBR transfected cell
were incubated either with no additives, the somatostatin octapeptide
analog, Bn, or NMB, or a combination for 30 min at 37° C.. Amylase
release from pancreatic acini was expressed at the indicated percent of
the total cellular amylase released during the incubation. [^3 H]IP i
expressed in dpm's. To test for inhibitory effects, the effect of
somatostatin analog (10 μM) was determined on 0.3 nM Bnstimulated

NMB receptor [4] = biological target: T4, NMB receptor (Rattus norvegicus, UniProt P24053); assay: [3H]inositol phosphates in NMB-R transfected cells (alone or NMB-stimulated); format: cell-based; design: a full length NMB-preferring bombesin receptor clone generated from rat esophagus; expressed in transfected cells; conditions: NMB-R transfected cells; for IC50: 3 nM NMB
T4 sequence (P24053 1-390): T1 sequence (P24053 1-390)
Method: As described previously [Wada, E., et al. Neuron 6:421 (1991)], BALB 3T3 cells expressing a stably transfected rat NMB receptor (NMB-R transfected cells) were obtained using calcium phosphate precipitation of a full length NMB-preferring bombesin receptor clone generated from rat esophagus and subcloned into a modified version of the pCD2 plasmid. Cells were passaged every 3-4 days at confluence, using 0.1% trypsin in 1 mM EDTA. Rat glioblastoma C-6 tumor cells were maintained similarly and were passaged weekly at confluence. Both cell lines were cultured at 37° C. in a 5% CO2 atmosphere. Rat AR 42J pancreatic acinar cells were cultured in Dulbecco's modified Eagle's medium (DMEM) without antibiotics and supplemented with 10% (vol/vol) fetal calf serum. The incubation atmosphere consisted of 10% CO2 -90% humidified air at 37° C.
Measurement of phosphoinositides
Total phosphoinositides in C-6 cells and in NMB-R transfected cells were determined as described previously, with minor modifications [Benya, R. V. et al. Mol. Pharmacol. 42:1058 (1992); and Wang, L-H. et al. Biochem. Jo 286:641 (1992)]. Cells were grown to confluence in 24-well plates and then loaded with 100 μCi/ml myo-[2-^3 H]inositol in Dulbecco's modified essential medium with 2% fetal bovine serum at 37° C. for 48 hrs. Cells were washed and incubated in phosphoinositide buffer (standard buffer additionally containing 10 mM LiCl, 20 mM HEPES, 2 mM CaCl2, 2% BSA, and 1.2 mM MgSO4) for 15 min and then for 60 min at 37° C. with agonists at various concentrations or with 3 nM NMB (a half-maximal effective concentration) and possible antagonists at different concentrations. Reactions were halted using ice-cold 1% HCl in methanol, and the inositol phosphates (IP) were isolated as described previously [Bologna, M. et al. Cancer 63:1714 (1989); and Endo, T. et al. J. Endocrinolo 131:313 (1991)]. Briefly, after loading of the anion exchange column, free [^3 H]glycerophosphorylinositol was removed by washing with 5 mM disodium tetraborate in 60 mM sodium formate. Total [^3 H]inositol phosphates were then eluted using 100 mM formic acid in 1.0M ammonium formate as described previously [Benya, R. V. et al. Mol. Pharmacol. 42:1058 (1992); and Wang, L-H. et al. Biochem. J. 286:641 (1992 )].

rat NMB receptor = biological target: T5, rat NMB receptor (Rattus norvegicus, UniProt P24053); assay: Binding of 125I-[D-Tyr0]NMB to NMB-R transfected BALB 3T3 cells
T5 construct: a full length NMB-preferring bombesin receptor clone generated from rat esophagus; expressed in transfected cells
T5 sequence (P24053 1-390): T1 sequence (P24053 1-390)
Method: Cells were passaged every 3-4 days at confluence, using 0.1% trypsin in 1 mM EDTA. Rat glioblastoma C-6 tumor cells were maintained similarly and were passaged weekly at confluence. Both cell lines were cultured at 37° C. in a 5% CO2 atmosphere. Rat AR 42J pancreatic acinar cells were cultured in Dulbecco's modified Eagle's medium (DMEM) without antibiotics and supplemented with 10% (vol/vol) fetal calf serum. The incubation atmosphere consisted of 10% CO2 -90% humidified air at 37° C.

mu opioid receptors = biological target: T6, mu opioid receptors (Rattus norvegicus, UniProt P33535); assay: Mu opioid membrane assay, [3H]DAGO, rat forebrain membranes; format: binding; conditions: Cheng method; unit inferred; read-out: affinity, [3H]DAGO, Rat Forebrain membranes (mu opioid receptors)
T6 construct: rat forebrain (TRH, mu and delta opioid membrane assays); from tissue; host or cells: rat forebrain membranes
T6 sequence (P33535 whole entry): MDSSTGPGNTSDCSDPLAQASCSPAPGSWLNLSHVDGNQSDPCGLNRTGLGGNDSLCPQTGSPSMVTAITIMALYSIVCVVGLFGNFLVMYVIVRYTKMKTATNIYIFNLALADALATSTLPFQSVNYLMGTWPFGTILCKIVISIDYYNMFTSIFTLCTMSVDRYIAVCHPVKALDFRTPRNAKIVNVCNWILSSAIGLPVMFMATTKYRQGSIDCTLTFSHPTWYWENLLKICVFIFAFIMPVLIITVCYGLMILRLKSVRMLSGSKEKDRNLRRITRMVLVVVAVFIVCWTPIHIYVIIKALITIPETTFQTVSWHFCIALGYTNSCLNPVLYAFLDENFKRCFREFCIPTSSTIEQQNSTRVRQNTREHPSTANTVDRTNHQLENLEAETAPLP

GRP receptor [5] = biological target: T3, GRP receptor; assay: GRP membrane receptor assay, 125I-[Tyr4]Bn, AR 42J cell membranes; format: binding; design: endogenous in cells; host or cells: rat AR 42J pancreatic acinar tumor cell membranes; conditions: read-out: affinity, 125I-[Tyr4]Bn, AR 42J Cell Membranes (GRP receptors); Cheng method; unit inferred
somatostatin receptors = biological target: T7, somatostatin receptors (Rattus norvegicus, UniProt P30680); assay: Somatostatin membrane receptor assay, 125I-[Tyr11]SS-14, AR 42J cell membranes; format: binding; conditions: Cheng method; table prints no unit (b360 gives nM for a Table 4 value); read-out: affinity, 125I-[Tyr11]SS-14, AR 42J Cell Membranes (somatostatin receptors)
T7 construct: endogenous in cells; host or cells: rat AR 42J pancreatic acinar tumor cell membranes
T7 sequence (P30680 whole entry): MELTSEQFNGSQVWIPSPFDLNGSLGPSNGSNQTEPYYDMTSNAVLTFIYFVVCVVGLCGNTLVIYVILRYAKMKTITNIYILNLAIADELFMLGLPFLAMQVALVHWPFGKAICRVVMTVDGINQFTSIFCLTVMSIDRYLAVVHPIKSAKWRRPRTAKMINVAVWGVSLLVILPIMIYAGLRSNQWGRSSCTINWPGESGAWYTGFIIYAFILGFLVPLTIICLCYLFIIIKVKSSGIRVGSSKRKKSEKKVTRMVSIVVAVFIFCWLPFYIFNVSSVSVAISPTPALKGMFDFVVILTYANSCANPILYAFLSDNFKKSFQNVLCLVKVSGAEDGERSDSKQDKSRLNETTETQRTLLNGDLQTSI

NMB receptor [6] = biological target: T4, NMB receptor; assay: NMB membrane receptor assay, 125I-NMB, rat olfactory bulb membranes; format: binding; design: Membranes were prepared from rat olfactory bulb (NMB membrane receptor assay); from tissue; host or cells: rat olfactory bulb membranes; conditions: Cheng method; unit inferred; read-out: affinity, 125I-NMB, Rat Olfactory bulb membranes (neuromedin B receptors)

Row | Compound | Ki [1] [µM] | Ki [2] [µM] | Amylase Release, analog Alone (10 μM) (GRP receptor [3]; analog 10 μM alone, control 4 ± 1) [% total] | Amylase Release, analog Plus Bn (0.3 nM) (GRP receptor [3]; analog 10 μM plus Bn 0.3 nM, Bn without analog 15 ± 1) [% total] | IC50 (GRP receptor [3]; read-out: IC50 Amylase Release, GRP Receptor, Rat Pancreatic Acini) [µM] | IC50 (NMB receptor [4]; read-out: IC50 NMB-stimulated [3H]IP, NMB Receptor, Transfected Cells) [µM] | IC50 (NMB receptor [4]; read-out: IC50 NMB-stimulated [3H]IP, Transfected Cells (values in μM)) [µM] | [3H]IP, analog Alone (10 μM) (NMB receptor [4]; analog 10 μM alone, control 13 ± 3) [dym × 10^3] | [3H]IP, analog Plus NMB (3 nM) (NMB receptor [4]; analog 10 μM plus NMB 3 nM, NMB without analog 186 ± 58) [dym × 10^3] | Ki (rat NMB receptor; NMB-R transfected BALB 3T3 cells, Ki by Cheng method, read-out: Ki 125I-NMB Binding, NMB Receptor, Transfected Cells) [µM] | fold by which cyclo SS-octa is more potent than the analog, 125I-NMB binding (rat NMB receptor; NMB-R transfected cells) [fold] | Ki (rat NMB receptor; NMB-R transfected cells, value or range given for a group, read-out: K1, 125I-NMB binding to NMB-R transfected cells (text)) [µM] | Ki (mu opioid receptors) [µM] | Ki (GRP receptor [5]) [µM] | Ki (somatostatin receptors) [nM] | Ki (NMB receptor [6]) [µM] | Kd (rat NMB receptor; NMB-R transfected cells, read-out: Kd of NMB for NMB receptors without cyclo SS-octa) [µM]
1 | CCN(CC)CCCC[C@@H]1NC(=O)[C@@H](Cc2c[nH]c3ccccc23)NC(=O)[C@H](Cc2ccc(O)cc2)NC(=O)[C@@H](NC(=O)[C@H](N)Cc2ccccc2)CSSC[C@@H](C(=O)N[C@@H](Cc2ccc3ccccc3c2)C(N)=O)NC(=O)[C@H]([C@@H](C)O)NC1=O [Analog #16, H2 -D-Phe-Cys-Tyr-D-TrP-Lys(diEt)-Thr-Cys-Nal-NH2] (H-[dF]CY[dW][Lys(Et2)]TC[2Nal]-NH2; disulfide 2-7) | 1.09 ± 0.038 | > 10 | 5 ± 1 | 12 ± 1 | > 10 | 7.21 ± 2.79 | 7.2 to 9.8 | 11 ± 2 | 73 ± 15 | 3.95 ± 0.509 | 18 | 3.9 to 4.4 | – | – | – | – | –
2 | CSCC[C@H](NC(=O)[C@H](Cc1ccccc1)NC(=O)[C@H](Cc1c[nH]cn1)NC(=O)CNC(=O)[C@@H](NC(=O)[C@H](C)NC(=O)[C@H](Cc1c[nH]c2ccccc12)NC(=O)[C@H](CC(C)C)NC(=O)[C@H](CC(N)=O)NC(=O)CN)[C@@H](C)O)C(N)=O [NMB, neuromedin B, reference compound] | – | – | – | – | – | – | – | – | – | – | – | – | > 10 | 0.019 ± 0.001 | > 10000 | 0.0011 ± 0.0002 | 0.0031 ± 0.0002
3 | gastrin-releasing peptide (VPLPAGGGTVLTKMYPRGNHWAVGHLM; ends and bridges not checked; UniProt P07492 24-50, looked up) [GRP, mammalian bombesin-related peptide, from Peninsula Laboratories, reference compound] | – | – | – | – | – | – | – | – | – | – | – | – | > 10 | – | > 10000 | 0.297 ± 0.015 | –
